# Where two headings read alike, the source gives them in different places.
# Key:
# [1] = Isocratic RP-HPLC lipophilicity (k, log k, extrapolated log kw, slope S), MeOH/water mobile phases; format: physicochemical; details: for log kw (RP-HPLC): extrapolated to 100% water from log k vs ϕM (MeOH); for S, slope (RP-HPLC): slope of regression log k vs ϕM, alternative measure of lipophilicity
# Source text: Octadecyl-functionalized silica gel was used as a stationary phase in the RP-HPLC evaluation of 8a–h. A gradient of two solvents at different volume ratios modulated retention properties of a stationary phase. Liquid binary mixtures of methanol (MeOH) with water were employed as mobile phases in a present isocratic RP-HPLC method. The MeOH organic modifier was preferred because of making a reversed-phase chromatographic system closer to the octan-1-ol/water partitioning one in terms of sensitivity to H-bond donor properties of investigated compounds [39, 40]. The modifier was applied in different volume concentrations that varied from 60% to 85% (v/v).
# The chromatographic HPLC-Diode Array Detection apparatus for the determination of capacity (retention) factor k (log k) values was the LC Agilent Infinity System (Agilent Technologies, Santa Clara, CA, USA) equipped with a Infinity 1260 gradient pump with a degasser, a 1260 HiPals automatic injector, a column thermostat 1290, a photo-diode array detector Infinity 1290 (all the equipments were obtained by Agilent Technologies) and personal computer with the Agilent ChemStation software (Agilent Technologies) for the registration of values and calibration procedures. The chromatographic column Eclipse plus RP C18, 150 × 4.6 mm i.d., a 5 μm particle size (Agilent Technologies), was used and thermostated at 35 °C.
# The analyses were performed at pressure ranged from 7 MPa to 15 MPa. The detection wavelength was set to 260 nm, injection sample volume was 5 μL with a flow rate of 1.0 mL/min in all RP-HPLC analyses.
# LC-MS Methanol (J. T. Baker Chemicals Co., Phillipsburg, NJ, USA) and HPLC-quality water (Sigma-Aldrich, Darmstadt, Germany) were used for a preparation of mobile phases. Water was firstly deionized and purified by the Millipore Simplicity 185 Ultrapure water purification system (Millipore, Billerica, MA, USA).
# Methanol (MeOH)/water mobile phases with a various volume ratio of the organic modifier and water (60:40, 70:30, 80:20 and 85:15, respectively; v/v) were chosen. A concentration of all analyzed compounds 8a–h was c = 0.25 mg/mL. An queous solution of potassium nitrate (c = 0.1 M) was used for the determination of dead time t0 = 1.295 min. The capacity (retention) factor k values (Table 1) were calculated by Equation (6) as follows:k = (tr – t0)/t0(6) where the tr and t0 parameters were the retention times of a solute (tr) and unretained compound (potassium nitrate; t0), respectively. The observed retention (tr) and dead (t0) times were means of three independent determinations.
# The log kw values, i.e., the logarithms of extrapolated capacity (retention) factors for 100% water in the isocratic RP-HPLC, were determined from intercepts of linear plots between the log k and ϕM (a volume fraction of an organic modifier in the isocratic elution RP-HPLC) according to Equation (7): log k = log kw – S × ϕM(7) where the S parameter represented the slope of a regression curve, which was related to the solvent strength of a pure organic solvent.
# [2] = system: M. avium intracellulare ATCC 13950; experiment: In vitro antimycobacterial MIC (IC90), alamarBlue 96-well assay in Middlebrook broth; format: cell-based, Mycobacterium avium intracellulare; details: Mycobacterium avium, ATCC13950, 168 h, 7 days incubation, read-out: MIC, MAI ATCC 13950
# [3] = system: M. kansasii 6 509/96 clinical isolate; experiment: In vitro antimycobacterial MIC, dilution-micromethod in Šula semisynthetic medium; format: cell-based; details: Mycobacterium kansasii, read-out: MIC, MK 6 509/96
# [4] = system: M. tuberculosis CNCTC My 331/88 (identical with H37Rv and ATCC 2794); experiment: as above; format: cell-based; details: Mycobacterium tuberculosis
# M. kansasii CIT11/06 = experiment: In vitro antimycobacterial MIC (IC90), alamarBlue 96-well assay in Middlebrook broth; format: cell-based, Mycobacterium kansasii; details: Mycobacterium kansasii, CIT11/06, 168 h, 7 days incubation, read-out: MIC, MK CIT11/06
# [5] = system: M. avium hominissuis CIT10/08; experiment: as above; format: cell-based, Mycobacterium avium hominissuis; details: Mycobacterium avium, 168 h, 7 days incubation, read-out: MIC, MAH CIT10/08
# [6] = system: M. avium subsp. paratuberculosis CIT03; experiment: microbe, parasite or virus in culture; format: cell-based; details: Mycobacterium avium, 168 h; 7 days incubation, alamarBlue; MIC = IC90; read-out: MIC, MAP CIT03
# [7] = system: M. kansasii CNCTC My 235/80 (identical with ATCC 12478); experiment: In vitro antimycobacterial MIC, dilution-micromethod in Šula semisynthetic medium; format: cell-based, Mycobacterium kansasii; details: Mycobacterium kansasii, read-out: MIC, MK My 235/80
# [8] = UV/Vis spectra of methanolic solutions (log ε); format: physicochemical; details: methanolic solution c = 3.0 × 10^−5 M; for log ε2(Ch-T): charge-transfer maximum λ2(Ch-T) = 238–240 nm; for log ε1: λ1 = 208–210 nm; for log ε3: λ3 = 274–276 nm
# Source text: Electronic properties of the inspected compounds 8a–h (Table 3) were characterized by logarithms of molar absorption coefficients (log ε) of their methanolic solutions (c = 3.0 × 10^−5 M) investigated in the UV/Vis region of the spectrum.
# The UV/Vis spectra of methanolic solutions of the analyzed compounds 8a–h (c = 3.0 × 10^−5 M) were estimated on the 8452A Diode Array spectrophotometer HP-8452A (Hewlett Packard, Palo Alto, CA, USA). Methanol for UV-spectroscopy (Merck) was used for the preparation of these solutions.
# Results of the UV/Vis analyses were collected and stored digitally using the ChemStation controller software (Agilent Technologies, Waldbronn, Germany). The HP-8452A apparatus measured a complete range of a spectrum from 190 nm to 820 nm.
# The log ε values characterizing methanolic solutions of the analyzed compounds 8a–h (c = 3.0 × 10^−5 M) were estimated at λ1 = 208–210 nm, λ2(Ch-T) = 238–240 nm and λ3 = 274–276 nm (Table 3), respectively, in a near ultraviolet (quarz) region of the electromagnetic spectrum between 200 and 400 nm. The log ε values for the observed absorption maxima were calculated according to the Lambert-Beer´s law discussed in [47], for example, and expressed by Equation (8):A = ε × c × l(8) where the A parameter represented the absorbance of a solution, the descriptor ε was a molar absorption coefficient (in the L/mol/cm units) and l was the path length (in the cm units).
# [9] = mobile phase MeOH/water 60:40 (v/v)
# [10] = mobile phase MeOH/water 70:30 (v/v)
# [11] = mobile phase MeOH/water 80:20 (v/v)
# [12] = mobile phase MeOH/water 85:15 (v/v)
# [13] = 336 h, 14-d/21-d cultivation, read-out: MIC against M. tuberculosis CNCTC My 331/88
# [14] = 336 h, 14 d cultivation, read-out: MIC, MT My 331/88
# [15] = 504 h, 21 d cultivation, read-out: MIC, MT My 331/88
# [16] = ATCC12478, 168 h, 7 d cultivation
# [17] = ATCC12478, 336 h, 14 d cultivation
# [18] = ATCC12478, 504 h, 21 d cultivation
SMILES,capacity factor k (RP-HPLC) ([1]; MeOH/water 60:40 (v/v)),capacity factor k (RP-HPLC) ([1]; MeOH/water 70:30 (v/v)),capacity factor k (RP-HPLC) ([1]; MeOH/water 80:20 (v/v)),capacity factor k (RP-HPLC) ([1]; MeOH/water 85:15 (v/v)),log kw (RP-HPLC) [1],"log k (RP-HPLC) [1, 9]","log k (RP-HPLC) [1, 10]","log k (RP-HPLC) [1, 11]","log k (RP-HPLC) [1, 12]","S, slope (RP-HPLC) [1]",MIC [2],"MIC ([3]; 336 h, 14 d cultivation)","MIC ([3]; 504 h, 21 d cultivation)","MIC [4, 14]","MIC [4, 15]",MIC (M. kansasii CIT11/06),MIC [5],MIC [6],"MIC [7, 16]","MIC [7, 17]",other results
"CCCCOC(=O)Nc1cccc(C(O)CN2CCN(c3ccccc3F)CC2)c1.Cl (stereo not shown) [8d, 1-(2-{3-[(Butoxycarbonyl)amino]phenyl}-2-hydroxyethyl)-4-(2-fluorophenyl)piperazin-1-ium chloride]",6.738,5.039,1.769,1.185,2.796,0.829,0.702,0.245,0.074,3.1641,> 553 µM,32 µM,62.5 µM,32 µM,32 µM,> 553 µM,> 553 µM,> 53 µM,32 µM,62.5 µM,"MIC ([3]; 168 h, 7 d cultivation): 16 µM; MIC [4, 13]: 32 µM; MIC [7, 18]: 62.5 µM; log ε2(Ch-T) [8]: 4.32; log ε1 [8]: 4.31; log ε3 [8]: 3.49"
"COC(=O)Nc1ccc(C(O)CN2CCN(c3ccccc3F)CC2)cc1.Cl (stereo not shown) [8e, 1-(2-Hydroxy-2-{4-[(methoxycarbonyl)amino]phenyl}ethyl)-4-(2-fluorophenyl)piperazin-1-ium chloride]",3.098,1.456,0.822,0.637,2.113,0.491,0.163,−0.085,−0.196,2.7386,> 610 µM,500 µM,500 µM,125 µM,125 µM,> 610 µM,> 610 µM,> 610 µM,125 µM,500 µM,"MIC ([3]; 168 h, 7 d cultivation): 125 µM; MIC [4, 13]: 125 µM; MIC [7, 18]: 500 µM; log ε2(Ch-T) [8]: 4.67; log ε1 [8]: 4.61; log ε3 [8]: 3.67"
"CCOC(=O)Nc1ccc(C(O)CN2CCN(c3ccccc3F)CC2)cc1.Cl (stereo not shown) [8f, 1-(2-{4-[(Ethoxycarbonyl)amino]phenyl}-2-hydroxyethyl)-4-(2-fluorophenyl)piperazin-1-ium chloride]",4.524,2.053,1.023,0.757,2.512,0.656,0.312,0.010,−0.121,3.1156,> 590 µM,> 125 µM,> 125 µM,32 µM,62.5 µM,295 µM,> 590 µM,> 590 µM,125 µM,> 250 µM,"MIC ([3]; 168 h): 62.5 µM; MIC [7, 18]: > 250 µM; log ε2(Ch-T) [8]: 4.60; log ε1 [8]: 4.59; log ε3 [8]: 3.60"
"CCCCOC(=O)Nc1ccc(C(O)CN2CCN(c3ccccc3F)CC2)cc1.Cl (stereo not shown) [8h, 1-(2-{4-[(Butoxycarbonyl)amino]phenyl}-2-hydroxyethyl)-4-(2-fluorophenyl)piperazin-1-ium chloride]",7.598,4.627,1.736,1.173,2.930,0.881,0.665,0.240,0.069,3.3441,> 553 µM,> 250 µM,> 250 µM,8 µM,8 µM,> 553 µM,> 553 µM,> 553 µM,62.5 µM,> 125 µM,"MIC ([3]; 168 h, 7 d cultivation): 125 µM; MIC [4, 13]: 8 µM; MIC [7, 18]: > 125 µM; log ε2(Ch-T) [8]: 4.42; log ε1 [8]: 4.34; log ε3 [8]: 3.42"

# — article PMC6149664, “Synthesis and In Vitro Antimycobacterial Activity of Novel N-Arylpiperazines Containing an Ethane-1,2-diyl Connecting Chain” (Molecules : A Journal of Synthetic Chemistry and Natural …, 2017)
